Reference: US20140134253A1, “DRY POWDER FOSFOMYCIN/TOBRAMYCIN FORMULATION FOR INHALATION” (Gilead Sciences, Inc., priority 2011, published 2014)

Experiments:
[1] = pH of the active ingredients in solution; assay type: physicochemical
Excerpt: Although simple amino acids and peptides have been used as excipients in pulmonary delivery, they exist as zwitterions with the free amine being protonated by the carboxylic acid. Since fosfomycin disodium and tobramycin base are basic with pHs of approximately 9.7, and 11 in solution, respectively, a formulation combining fosfomycin disodium and tobramycin base would be expected to be outside of the pH range to be tolerable for administration by inhalation to the pulmonary system. However, with the addition of NAL, the pH range in the lung upon administration of the dry powder formulation of the present invention is between about 7 to about 8, and preferably, from about 7.1 to about 7.7. Without the addition of NAL, a dry powder formulation combining fosfomycin disodium and tobramycin in the same molar ratios would be expected to produce a pH in the lung of about 8.2 (when the pH of tobramycin is adjusted with 2.5 molar equivalent of sulfuric acid) and a pH of about 9.1 (without pH adjustment with sulfuric acid).

[2] = system: E. coli, Proteus spp., Salmonella spp., Shigella spp., and S. marcescens; conditions: cited from earlier work
[3] = aerosol administration; cited from earlier work
[4] = cited from earlier work

| SMILES | pH in solution [1] | fosfomycin concentration at which organisms are generally inhibited [2] [µg/mL] | sputum levels [3] [µg/mL] | oral absorption ([4]; in vivo, po) | plasma half-life ([4]; parenteral administration, excreted by glomerular filtration) [h] |
| --- | --- | --- | --- | --- | --- |
| C[C@@H]1O[C@@H]1P(=O)(O)O [fosfomycin disodium] | approximately 9.7 | – | – | – | – |
| C[C@@H]1O[C@@H]1P(=O)(O)O [Fosfomycin] | – | ≤ 64 | – | – | – |
| NC[C@H]1O[C@H](O[C@H]2[C@H](O)[C@@H](O[C@H]3O[C@H](CO)[C@@H](O)[C@H](N)[C@H]3O)[C@H](N)C[C@@H]2N)[C@H](N)C[C@@H]1O [tobramycin, Tobramycin] | ~11 | – | ≥ 1000 | poorly absorbed orally | 1 to 2 |
